{"source": "patent US11918592B2", "about": "“Inhibitors of cyclin dependent kinase 7 (CDK7)” (Syros Pharmaceuticals, Inc., priority 2018, dated 2024)", "key": {"[1]": {"tested_on": "HCC70 cells", "test": "Inhibition of cell proliferation, CyQUANT Direct, HCC70", "assay_type": "cell-based, human", "conditions": "Homo sapiens; HCC70 triple negative breast cancer cells, 72-hour; read-out: HCC 70 proliferation calculated IC50"}, "[2]": {"target": "CDK9/Cyclin T1 complex (Homo sapiens, UniProt P50750)", "sequence (P50750 whole entry)": "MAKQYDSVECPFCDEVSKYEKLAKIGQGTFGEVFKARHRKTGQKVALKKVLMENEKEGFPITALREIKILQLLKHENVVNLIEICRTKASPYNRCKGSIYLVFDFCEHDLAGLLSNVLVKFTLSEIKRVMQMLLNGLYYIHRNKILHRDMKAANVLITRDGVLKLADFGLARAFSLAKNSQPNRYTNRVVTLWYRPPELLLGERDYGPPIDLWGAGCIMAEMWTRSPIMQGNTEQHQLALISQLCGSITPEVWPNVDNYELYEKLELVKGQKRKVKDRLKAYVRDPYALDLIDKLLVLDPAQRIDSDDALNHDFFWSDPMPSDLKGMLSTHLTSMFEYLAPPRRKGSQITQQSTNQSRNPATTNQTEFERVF", "sequence (O60563 whole entry partner)": "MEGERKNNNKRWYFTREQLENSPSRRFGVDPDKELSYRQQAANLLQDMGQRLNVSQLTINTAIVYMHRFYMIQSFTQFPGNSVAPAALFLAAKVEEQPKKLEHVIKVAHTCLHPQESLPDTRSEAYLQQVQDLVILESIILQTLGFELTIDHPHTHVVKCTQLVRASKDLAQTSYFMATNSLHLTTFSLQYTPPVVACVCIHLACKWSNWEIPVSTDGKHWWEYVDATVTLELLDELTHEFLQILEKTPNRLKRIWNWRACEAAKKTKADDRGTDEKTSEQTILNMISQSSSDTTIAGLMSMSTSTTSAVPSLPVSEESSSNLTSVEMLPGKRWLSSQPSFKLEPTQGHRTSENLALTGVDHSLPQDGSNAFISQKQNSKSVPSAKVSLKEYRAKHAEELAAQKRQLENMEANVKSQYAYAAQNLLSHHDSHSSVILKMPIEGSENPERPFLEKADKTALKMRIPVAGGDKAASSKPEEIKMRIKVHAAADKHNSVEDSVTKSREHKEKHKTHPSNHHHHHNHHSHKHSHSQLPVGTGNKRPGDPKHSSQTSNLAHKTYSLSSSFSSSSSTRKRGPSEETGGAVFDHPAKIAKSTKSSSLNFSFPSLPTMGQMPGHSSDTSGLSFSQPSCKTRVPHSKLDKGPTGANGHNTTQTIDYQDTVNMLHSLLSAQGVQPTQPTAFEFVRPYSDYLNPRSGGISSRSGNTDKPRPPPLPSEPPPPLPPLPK", "test": "CDK9 kinase inhibition assay (Caliper/LabChip EZ Reader)", "procedure": "(§1) Compounds of the invention were assayed for inhibition of CDK7, CDK9, CDK12, and CDK2 activity at Biortus Biosciences (Jiangyin, Jiangsu Province, P.R. of China) using kinase assays for each CDK developed with a Caliper/LabChip EZ Reader (Perkin Elmer, Waltham, MA).\n(§2) Furthermore, the CDK9 inhibition assay used CDK9/Cyclin T1 complex (8 nM) and “5-FAM-CDK9tide” peptide substrate (2 μM, synthesized fluorophore-labeled peptide with the following sequence: 5-FAM-GSRTPMY-NH2 (SEQ ID NO:2) where 5-FAM is defined above and NH2 signifies a C-terminal amide) with 10 mM MgCl2 in the buffer composition listed above. The CDK12 inhibition assay used CDK12 (aa686-1082)/Cyclin K complex (50 nM) and “5-FAM-CDK9tide” (2 μM) as defined above, with 2 mM MgCl2 in the buffer composition above. Additionally, the CDK2 inhibition assay used CDK2/Cyclin E1 complex (0.5 nM) and “5-FAM-CDK7tide” (2 μM) as defined above, with 2 mM MgCl2 in the buffer composition listed above.\n(§3) The incubation period at 27° C. for each CDK inhibition assay was chosen such that the fraction of phosphorylated peptide product produced in each assay, relative to the total peptide concentration, was approximately 20% (±5%) for the uninhibited kinase (35 min. for CDK7, 35 min. for CDK2, 3 hr. for CDK12, 15 min. for CDK9)."}, "[3]": {"target": "CDK2/Cyclin E1 complex (Homo sapiens, UniProt P24941)", "test": "CDK2 kinase inhibition assay (Caliper/LabChip EZ Reader)", "procedure": "as §1, §2, §3"}, "[4]": {"tested_on": "MB453 cells", "test": "Inhibition of cell proliferation, CyQUANT Direct, MB453", "assay_type": "cell-based, human", "conditions": "Homo sapiens; MB453 triple negative breast cancer cells, 72-hour; read-out: MB 453 proliferation calculated IC50"}, "[5]": {"target": "CDK12 (aa686-1082)/Cyclin K complex (Homo sapiens, UniProt Q9NYV4)", "sequence (Q9NYV4 686-1082)": "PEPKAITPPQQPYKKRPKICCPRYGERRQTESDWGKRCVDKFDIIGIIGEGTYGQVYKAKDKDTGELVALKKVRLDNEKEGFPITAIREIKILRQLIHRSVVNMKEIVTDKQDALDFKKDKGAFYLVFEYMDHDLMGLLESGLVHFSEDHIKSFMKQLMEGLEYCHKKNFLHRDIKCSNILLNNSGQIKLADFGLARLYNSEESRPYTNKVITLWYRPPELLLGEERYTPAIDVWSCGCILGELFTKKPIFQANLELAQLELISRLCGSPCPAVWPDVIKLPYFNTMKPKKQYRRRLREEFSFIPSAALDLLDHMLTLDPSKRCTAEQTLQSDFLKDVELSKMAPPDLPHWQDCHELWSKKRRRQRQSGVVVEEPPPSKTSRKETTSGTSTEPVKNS", "sequence (O75909 whole entry partner, the tested form may be a part)": "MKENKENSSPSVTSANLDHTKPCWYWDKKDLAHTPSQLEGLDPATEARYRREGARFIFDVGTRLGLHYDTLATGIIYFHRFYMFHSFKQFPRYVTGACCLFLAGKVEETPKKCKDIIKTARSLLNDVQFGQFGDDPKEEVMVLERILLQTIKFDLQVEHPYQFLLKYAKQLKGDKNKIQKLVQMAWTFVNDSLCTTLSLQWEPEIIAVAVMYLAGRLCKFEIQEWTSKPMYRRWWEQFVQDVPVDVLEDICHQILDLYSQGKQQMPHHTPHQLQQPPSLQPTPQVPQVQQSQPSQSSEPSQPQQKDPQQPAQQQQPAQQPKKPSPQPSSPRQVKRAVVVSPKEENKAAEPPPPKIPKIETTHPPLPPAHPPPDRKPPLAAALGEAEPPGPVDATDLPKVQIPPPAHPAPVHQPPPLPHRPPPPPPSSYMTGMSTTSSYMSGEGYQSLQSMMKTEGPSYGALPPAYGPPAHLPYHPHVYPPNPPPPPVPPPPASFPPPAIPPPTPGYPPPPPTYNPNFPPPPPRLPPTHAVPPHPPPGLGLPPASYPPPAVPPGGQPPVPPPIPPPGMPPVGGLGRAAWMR", "test": "CDK12 kinase inhibition assay (Caliper/LabChip EZ Reader)", "procedure": "as §1, §2, §3"}, "[6]": {"tested_on": "COV504 cells", "test": "Inhibition of cell proliferation, CyQUANT Direct, COV504", "assay_type": "cell-based", "conditions": "Homo sapiens; COV504 ovarian cancer cells, 72-hour; read-out: COV 504 proliferation calculated IC50"}, "[7]": {"tested_on": "COV318 cells", "test": "Inhibition of cell proliferation, CyQUANT Direct, COV318", "assay_type": "cell-based", "conditions": "Homo sapiens; COV318 ovarian cancer cells, 72-hour; read-out: COV 318 proliferation calculated IC50"}, "[8]": {"target": "CDK7/Cyclin H/MAT1 complex (Homo sapiens, UniProt P50613)", "sequence (P50613 whole entry)": "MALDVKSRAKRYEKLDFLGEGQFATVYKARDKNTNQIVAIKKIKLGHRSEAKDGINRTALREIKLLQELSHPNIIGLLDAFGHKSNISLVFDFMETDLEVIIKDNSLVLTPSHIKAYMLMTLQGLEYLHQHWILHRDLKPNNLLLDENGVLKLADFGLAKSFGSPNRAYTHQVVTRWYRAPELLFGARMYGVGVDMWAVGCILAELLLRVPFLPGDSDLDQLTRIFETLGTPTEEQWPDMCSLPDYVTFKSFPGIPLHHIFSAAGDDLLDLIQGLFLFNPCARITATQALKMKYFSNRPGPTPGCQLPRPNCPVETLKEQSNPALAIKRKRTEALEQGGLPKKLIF", "sequence (P51946 whole entry partner)": "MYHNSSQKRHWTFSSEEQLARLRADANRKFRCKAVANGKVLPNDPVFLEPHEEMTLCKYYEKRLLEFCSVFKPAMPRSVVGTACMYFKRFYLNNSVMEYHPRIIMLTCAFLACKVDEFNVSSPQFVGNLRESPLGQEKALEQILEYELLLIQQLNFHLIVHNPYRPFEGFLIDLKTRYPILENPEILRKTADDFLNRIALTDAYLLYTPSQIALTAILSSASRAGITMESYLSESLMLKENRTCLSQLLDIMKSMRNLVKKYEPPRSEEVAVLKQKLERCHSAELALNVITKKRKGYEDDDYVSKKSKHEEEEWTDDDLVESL", "sequence (P51948 whole entry partner)": "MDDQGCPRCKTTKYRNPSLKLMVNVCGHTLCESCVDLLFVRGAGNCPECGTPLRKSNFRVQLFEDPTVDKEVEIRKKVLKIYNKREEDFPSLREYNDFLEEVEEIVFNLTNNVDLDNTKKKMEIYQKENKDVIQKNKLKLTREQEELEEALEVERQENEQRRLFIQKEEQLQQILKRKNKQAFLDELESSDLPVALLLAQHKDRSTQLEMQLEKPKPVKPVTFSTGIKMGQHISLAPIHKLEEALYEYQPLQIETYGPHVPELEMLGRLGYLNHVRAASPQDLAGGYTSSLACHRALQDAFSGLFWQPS", "test": "CDK7 kinase inhibition assay (Caliper/LabChip EZ Reader)", "procedure": "as §1, §2, §3"}}, "data": [{"compound": "CP(C)(=O)c1c(C#N)ccc2c(-c3nc(N[C@H]4CCC[C@@H]4N)ncc3C(F)(F)F)c[nH]c12", "note": "[Compound 161, 3-[2-[[(1S,2S)-2-aminocyclopentyl]amino]-5-(trifluoromethyl)pyrimidin-4-yl]-7-dimethylphosphoryl-1H-indole-6-carbonitrile]", "values": [{"measurement": "IC50", "setting": "[1]", "value": "< 100", "unit": "nM"}, {"measurement": "IC50", "setting": "[2]", "value": "> 500", "unit": "nM"}, {"measurement": "IC50", "setting": "[3]", "value": "> 500", "unit": "nM"}, {"measurement": "IC50", "setting": "[4]", "value": "< 100", "unit": "nM"}, {"measurement": "IC50", "setting": "[5]", "value": "> 500", "unit": "nM"}, {"measurement": "IC50", "setting": "[6]", "value": "< 100", "unit": "nM"}, {"measurement": "IC50", "setting": "[7]", "value": "100 to 500", "unit": "nM"}, {"measurement": "IC50", "setting": "[8]", "value": "< 30", "unit": "nM"}]}, {"compound": "Cc1noc(C)c1-c1ccc2c(-c3nc(N[C@H]4CCC[C@H]4N4CC(O)C4)ncc3C(F)(F)F)c[nH]c2n1", "note": "[Compound 163, 1-[(1R,2S)-2-[[4-[6-(3,5-dimethylisoxazol-4-yl)-1H-pyrrolo[2,3-b]pyridin-3-yl]-5-(trifluoromethyl)pyrimidin-2-yl]amino]cyclopentyl]azetidin-3-ol]", "values": [{"measurement": "IC50", "setting": "[1]", "value": "> 2000", "unit": "nM"}, {"measurement": "IC50", "setting": "[2]", "value": "> 500", "unit": "nM"}, {"measurement": "IC50", "setting": "[3]", "value": "> 500", "unit": "nM"}, {"measurement": "IC50", "setting": "[4]", "value": "500 to 2000", "unit": "nM"}, {"measurement": "IC50", "setting": "[5]", "value": "> 500", "unit": "nM"}, {"measurement": "IC50", "setting": "[6]", "value": "> 2000", "unit": "nM"}, {"measurement": "IC50", "setting": "[7]", "value": "> 2000", "unit": "nM"}, {"measurement": "IC50", "setting": "[8]", "value": "30 to 100", "unit": "nM"}]}, {"compound": "COC1CN([C@H]2CCC[C@@H]2Nc2ncc(C(F)(F)F)c(-c3c[nH]c4nc(-c5c(C)noc5C)ccc34)n2)C1", "note": "[Compound 164, 4-[6-(3,5-dimethylisoxazol-4-yl)-1H-pyrrolo[2,3-b]pyridin-3-yl]-N-[(1S,2S)-2-(3-methoxyazetidin-1-yl)cyclopentyl]-5-(trifluoromethyl)pyrimidin-2-amine]", "values": [{"measurement": "IC50", "setting": "[1]", "value": "100 to 500", "unit": "nM"}, {"measurement": "IC50", "setting": "[2]", "value": "> 500", "unit": "nM"}, {"measurement": "IC50", "setting": "[3]", "value": "> 500", "unit": "nM"}, {"measurement": "IC50", "setting": "[4]", "value": "100 to 500", "unit": "nM"}, {"measurement": "IC50", "setting": "[5]", "value": "> 500", "unit": "nM"}, {"measurement": "IC50", "setting": "[6]", "value": "100 to 500", "unit": "nM"}, {"measurement": "IC50", "setting": "[7]", "value": "> 2000", "unit": "nM"}, {"measurement": "IC50", "setting": "[8]", "value": "< 30", "unit": "nM"}]}, {"compound": "COC1CN([C@@H]2CCC[C@@H]2Nc2ncc(C(F)(F)F)c(-c3c[nH]c4nc(-c5c(C)noc5C)ccc34)n2)C1", "note": "[Compound 165, 4-[6-(3,5-dimethylisoxazol-4-yl)-1H-pyrrolo[2,3-b]pyridin-3-yl]-N-[(1S,2R)-2-(3-methoxyazetidin-1-yl)cyclopentyl]-5-(trifluoromethyl)pyrimidin-2-amine]", "values": [{"measurement": "IC50", "setting": "[1]", "value": "> 2000", "unit": "nM"}, {"measurement": "IC50", "setting": "[2]", "value": "> 500", "unit": "nM"}, {"measurement": "IC50", "setting": "[3]", "value": "> 500", "unit": "nM"}, {"measurement": "IC50", "setting": "[4]", "value": "500 to 2000", "unit": "nM"}, {"measurement": "IC50", "setting": "[5]", "value": "> 500", "unit": "nM"}, {"measurement": "IC50", "setting": "[6]", "value": "> 2000", "unit": "nM"}, {"measurement": "IC50", "setting": "[7]", "value": "> 2000", "unit": "nM"}, {"measurement": "IC50", "setting": "[8]", "value": "30 to 100", "unit": "nM"}]}, {"compound": "Cc1noc(C)c1-c1ccc2c(-c3nc(N[C@H]4CCC[C@@H]4N4CC(F)(F)C4)ncc3C(F)(F)F)c[nH]c2n1", "note": "[Compound 166, N-[(1S,2S)-2-(3,3-difluoroazetidin-1-yl)cyclopentyl]-4-[6-(3,5-dimethylisoxazol-4-yl)-1H-pyrrolo[2,3-b]pyridin-3-yl]-5-(trifluoromethyl)pyrimidin-2-amine]", "values": [{"measurement": "IC50", "setting": "[1]", "value": "> 2000", "unit": "nM"}, {"measurement": "IC50", "setting": "[2]", "value": "> 500", "unit": "nM"}, {"measurement": "IC50", "setting": "[3]", "value": "> 500", "unit": "nM"}, {"measurement": "IC50", "setting": "[4]", "value": "> 2000", "unit": "nM"}, {"measurement": "IC50", "setting": "[5]", "value": "> 500", "unit": "nM"}, {"measurement": "IC50", "setting": "[6]", "value": "> 2000", "unit": "nM"}, {"measurement": "IC50", "setting": "[7]", "value": "> 2000", "unit": "nM"}, {"measurement": "IC50", "setting": "[8]", "value": "> 500", "unit": "nM"}]}, {"compound": "Cc1noc(C)c1-c1ccc2c(-c3nc(N[C@H]4CCC[C@H]4N4CC(F)(F)C4)ncc3C(F)(F)F)c[nH]c2n1", "note": "[Compound 167, N-[(1S,2R)-2-(3,3-difluoroazetidin-1-yl)cyclopentyl]-4-[6-(3,5-dimethylisoxazol-4-yl)-1H-pyrrolo[2,3-b]pyridin-3-yl]-5-(trifluoromethyl)pyrimidin-2-amine]", "values": [{"measurement": "IC50", "setting": "[1]", "value": "> 2000", "unit": "nM"}, {"measurement": "IC50", "setting": "[2]", "value": "> 500", "unit": "nM"}, {"measurement": "IC50", "setting": "[3]", "value": "> 500", "unit": "nM"}, {"measurement": "IC50", "setting": "[4]", "value": "> 2000", "unit": "nM"}, {"measurement": "IC50", "setting": "[5]", "value": "> 500", "unit": "nM"}, {"measurement": "IC50", "setting": "[6]", "value": "> 2000", "unit": "nM"}, {"measurement": "IC50", "setting": "[7]", "value": "> 2000", "unit": "nM"}, {"measurement": "IC50", "setting": "[8]", "value": "> 500", "unit": "nM"}]}, {"compound": "N[C@H]1CCC[C@@H]1Nc1ncc(C(F)(F)F)c(-c2c[nH]c3c(Cl)c(O)ccc23)n1", "note": "[Compound 168, 3-[2-[[(1S,2S)-2-aminocyclopentyl]amino]-5-(trifluoromethyl)pyrimidin-4-yl]-7-chloro-1H-indol-6-ol]", "values": [{"measurement": "IC50", "setting": "[1]", "value": "100 to 500", "unit": "nM"}, {"measurement": "IC50", "setting": "[2]", "value": "> 500", "unit": "nM"}, {"measurement": "IC50", "setting": "[3]", "value": "> 500", "unit": "nM"}, {"measurement": "IC50", "setting": "[4]", "value": "< 100", "unit": "nM"}, {"measurement": "IC50", "setting": "[5]", "value": "> 500", "unit": "nM"}, {"measurement": "IC50", "setting": "[6]", "value": "< 100", "unit": "nM"}, {"measurement": "IC50", "setting": "[7]", "value": "100 to 500", "unit": "nM"}, {"measurement": "IC50", "setting": "[8]", "value": "< 30", "unit": "nM"}]}]}
